# According to US20220087996A1, “Histone acetylase p300 inhibitor and use thereof” (HINOVA PHARMACEUTICALS INC., priority 2018, published 2022):
# Where two headings read alike, the source gives them in different places.
# Tests used:
# [1] = tested on: MLMA; assay: Inhibition of proliferation of MLMA cells; assay type: cell-based; settings: Lymphoma cell line MLMA; read-out: IC50 against MLMA
# Protocol: (§1) 1) CWR22RV1 cells were subcultured in cell culture medium, and the cells in good growth condition were seeded in a 96-well plate, 80 μL for each well, and the cell number in each well was 1500. The plate was incubated overnight in a 37° C., 5% CO2 cell incubator. 2) The drug was prepared as 30 mM stock solution with dimethyl sulfoxide (DMSO). Prior to use, the stock solution was diluted 3 times with DMSO, and then further diluted as 3-fold gradient to obtain 9 concentration gradients. Then, each concentration of compound was diluted 200 times with the culture solution (ensuring that the DMSO concentration in the culture system was 0.1%), and two replicate wells were set for each concentration. 20 μL of diluted compound solution was added to the cell culture well (with final concentrations of 10 μM, 3.3 μM. 1.1 μM . . . ), and the plate was gently shaken to mix. In addition, 3 negative control wells containing only cells and 3 blank control wells containing only culture medium were included (6 wells were each added 20 μL DMSO diluted 200 times with culture medium). 2. Result detection: (1) After culturing for 6 days, 10 μL CCK-8 was added to each well, and the plate was continually cultured in a 37° C., 5% CO2 cell incubator for 2.5 h. (2) The absorbance (OD value) was detected at 450 nm using a multifunctional microplate reader. (3) The data were analyzed by Dose-response-inhibition equation in the software GraphPad Prism6, and the IC50 value was obtained.
# (§2) Using the same method as Experimental example 2, CWR22RV1 cells were replaced with tumor cells in Table 3, and the IC50 (nM) of the compound according to the present invention against the activity of these tumor cells was tested and calculated.
# [2] = tested on: LNCAP-AR; assay: Inhibition of proliferation of LNCAP-AR cells; assay type: cell-based; settings: Prostate cancer cell line LNCAP-AR; read-out: IC50 against LNCAP-AR
# Protocol: as §1, §2
# [3] = tested on: MM.1S; assay: Inhibition of proliferation of MM.1S cells; assay type: cell-based; settings: Homo sapiens, MM1.S; Multiple myeloma cell line MM.1S; read-out: IC50 against MM.1S
# Protocol: as §1, §2
# [4] = tested on: KMS-20; assay: Inhibition of proliferation of KMS-20 cells; assay type: cell-based; settings: Multiple myeloma cell line KMS-20; read-out: IC50 against KMS-20
# Protocol: as §1, §2
# [5] = tested on: MCF-7; assay: Inhibition of proliferation of MCF-7 cells; assay type: cell-based; settings: Homo sapiens, MCF7; Breast cancer cell line MCF-7; read-out: IC50 against MCF-7
# Protocol: as §1, §2
# [6] = tested on: EVSA-T; assay: Inhibition of proliferation of EVSA-T cells; assay type: cell-based; settings: Homo sapiens; Breast cancer cell line EVSA-T; read-out: IC50 against EVSA-T
# Protocol: as §1, §2
# [7] = tested on: HEL; assay: Inhibition of proliferation of HEL cells; assay type: cell-based; settings: Homo sapiens; Leukemia cell line HEL; read-out: IC50 against HEL
# Protocol: as §1, §2
# [8] = tested on: MOLT-4; assay: Inhibition of proliferation of MOLT-4 cells; assay type: cell-based; settings: Homo sapiens; Leukemia cell line MOLT-4; read-out: IC50 against MOLT-4
# Protocol: as §1, §2
# [9] = tested on: MCF-7 cells; assay: Compound in combination with CDK4/6 inhibitor palbociclib against proliferation of MCF-7 cells; assay type: cell-based; settings: for IC50: Homo sapiens
# Protocol: 1) CWR22RV1 cells were subcultured in cell culture medium, and the cells in good growth condition were seeded in a 96-well plate, 60 μL for each well, and the cell number in each well was 2000. The plate was incubated overnight in a 37° C., 5% CO2 cell incubator. 2) The drug was prepared as 10 mM stock solution with dimethyl sulfoxide (DMSO). Prior to use, the stock solution was diluted 3 times with DMSO, and then further diluted as 3-fold gradient to obtain 9 concentration gradients. Then, each concentration of compound was diluted 200 times with the culture solution (ensuring that the DMSO concentration in the culture system was 0.1%), and two replicate wells were set for each concentration. 20 μL of diluted compound solution was added to the cell culture well (with final concentrations of 10 μM, 3.3 μM, 1.1 μM . . . ). Palbociclib was diluted with culture medium to 500 nM, 150 nM, 50 nM, 5 nM, and 20 μL diluted compound solution was added to the corresponding cell culture wells (with a final concentration of 100 nM, 30 nM, 10 nM, 1 nM). The plate was gently shaken to mix. In addition, 3 negative control wells containing only cells and 3 blank control wells containing only culture medium were included (6 wells were each added 20 μL DMSO diluted 200 times with culture medium).
# (1) After culturing for 6 days, 10 μL CCK-8 was added to each well, and the plate was continually cultured in a 37° C., 5% CO2 cell incubator for 2.5 h. (2) The absorbance (OD value) was detected at 450 nm using a multifunctional microplate reader. (3) The data were analyzed by Dose-response-inhibition equation in the software GraphPad Prism6, and the IC50 value was obtained.
# Using the same method as Experimental example 4, CWR22RV1 cells were replaced with MCF-7 cells, and the IC50 values (nM) of the compound according to the present invention, palbociclib, as well as the combination of the compound according to the present invention and palbociclib against the proliferation of MCF-7 cells w ere tested and calculated.
# [10] = tested on: ATN-1; assay: Inhibition of proliferation of ATN-1 cells; assay type: cell-based; settings: Homo sapiens; Leukemia cell line ATN-1; read-out: IC50 against ATN-1
# Protocol: as §1, §2
# [11] = tested on: OPM-2; assay: Inhibition of proliferation of OPM-2 cells; assay type: cell-based; settings: Homo sapiens; Multiple myeloma cell line OPM-2; read-out: IC50 against OPM-2
# Protocol: as §1, §2
# [12] = tested on: CWR22RV1 cells; assay: Inhibition of proliferation of CWR22RV1 cells (CCK-8); assay type: cell-based, human; settings: Homo sapiens, CWR22Rv1, 144 h, 6 days culture
# Summary of the method: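 CWR22RV1 cells (1500/well) were exposed to 9 three-fold compound concentrations (top final 10 μM, 0.1% DMSO) for 6 days. CCK-8 was added for 2.5 h, and absorbance was read at 450 nm. IC50 was fitted with a dose-response-inhibition equation.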
# [13] = tested on: MDA-MB-453; assay: Inhibition of proliferation of MDA-MB-453 cells; assay type: cell-based; settings: Homo sapiens; Breast cancer cell line MDA-MB-453; read-out: IC50 against MDA-MB-453
# Protocol: as §1, §2
# [14] = tested on: DU4475; assay: Inhibition of proliferation of DU4475 cells; assay type: cell-based; settings: Homo sapiens, DU-4475; Breast cancer cell line DU4475; read-out: IC50 against DU4475
# Protocol: as §1, §2
# [15] = tested on: NCI-H929; assay: Inhibition of proliferation of NCI-H929 cells; assay type: cell-based; settings: Homo sapiens; Multiple myeloma cell line NCI-H929; read-out: IC50 against NCI-H929
# Protocol: as §1, §2
# [16] = tested on: MAVER-1; assay: Inhibition of proliferation of MAVER-1 cells; assay type: cell-based; settings: Homo sapiens, Maver1; Lymphoma cell line MAVER-1; read-out: IC50 against MAVER-1
# Protocol: as §1, §2
# [17] = read-out: IC50 against CWR22RV1 cells
# [18] = read-out: IC50 against CWR22RV1 cells (text)
IC50 [2],IC50 [3],IC50 [5],IC50 [8],IC50 [13],IC50 [15],SMILES,IC50 [1],IC50 [4],IC50 [6],IC50 [7],IC50 [10],IC50 [11],"IC50 [12, 17]","IC50 [12, 18]",IC50 [14],IC50 [16],other results
≤ 0.5 µM,0.5 to 2 µM,≤ 0.5 µM,≤ 0.5 µM,≤ 0.5 µM,≤ 0.5 µM,"CNC(=O)Nc1ccc2c(c1)CC[C@@]21OC(=O)N(CC(=O)N2C(C)CC[C@H]2c2cc(F)c(F)c(F)c2)C1=O (stereo in doubt) [Example 205, 1-((R)-3′-(2-((2S,5R)-2-(3,4,5-trifluorophenyl)-5-methylpyrrolidin-1-yl)-2-oxoethyl)-2′,4′-dioxo-2,3-dihydrospiro[indene-1,5′-oxazolidine]-5-yl)-3-methylurea]",≤ 0.5 µM,≤ 0.5 µM,0.5 to 2 µM,0.5 to 2 µM,≤ 0.5 µM,≤ 0.5 µM,≤ 0.5 µM,≤ 0.5 µM,0.5 to 2 µM,≤ 0.5 µM,"IC50 ([9]; MCF7, in combination with 10 nM palbociclib): 0.019 µM; IC50 ([9]; MCF7, in combination with 30 nM palbociclib): 0.0016 µM; IC50 ([9]; MCF7, in combination with 100 nM palbociclib): 0.0015 µM; IC50 ([9]; MCF7, single agent): 0.081 µM; inhibitory activity on MCF-7 cells when combined with palbociclib, versus either agent alone ([9]; combination with CDK4/6 inhibitor palbociclib): much higher"
≤ 0.5 µM,0.5 to 2 µM,≤ 0.5 µM,≤ 0.5 µM,≤ 0.5 µM,≤ 0.5 µM,CNC(=O)Nc1ccc2c(c1)CC[C@@]21OC(=O)N(CC(=O)N2[C@@H](C)CC[C@H]2c2ccc(F)c(F)c2)C1=O [Example 201],≤ 0.5 µM,≤ 0.5 µM,0.5 to 2 µM,0.5 to 2 µM,≤ 0.5 µM,≤ 0.5 µM,≤ 0.5 µM,≤ 0.5 µM,0.5 to 2 µM,≤ 0.5 µM,
≤ 0.5 µM,0.5 to 2 µM,≤ 0.5 µM,≤ 0.5 µM,≤ 0.5 µM,≤ 0.5 µM,"CNC(=O)Nc1cc2c(cc1F)[C@@]1(CC2)OC(=O)N(CC(=O)N2[C@@H](C)CC[C@H]2c2ccc(F)c(F)c2)C1=O [Example 389, 1-((R)-3′-(2-((2S,5S)-2-(3,4-difluorophenyl)-5-methylpyrrolidin-1-yl)-2-oxoethyl)-6-fluoro-2′,4′-dioxo-2,3-dihydrospiro[indene-1,5′-oxazolidine]-5-yl)-3-methylurea]",≤ 0.5 µM,≤ 0.5 µM,0.5 to 2 µM,≤ 0.5 µM,≤ 0.5 µM,≤ 0.5 µM,≤ 0.5 µM,≤ 0.5 µM,0.5 to 2 µM,≤ 0.5 µM,
